Reference: ChEMBL document CHEMBL1201862, “PubChem BioAssay data set” (2004)
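Exposure lasted 48 hours, with cells grown in 96-well plates and compounds tested at five concentrations. Here, GI50 denotes the concentration required for 50% inhibition of growth.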 Calls of active or inactive are those of the source. No stated cut-off is given here; in the data, active = GI50 up to about 1.1 µM and inactive = higher.

How the values were obtained:
Test in all cases: growth of human tumour cells (NCI), 48 h
786-0 = test system: 786-0
A498 = test system: A498
CAKI-1 = test system: CAKI-1
COLO 205 = test system: COLO 205
DU-145 = test system: DU-145
HOP-62 = test system: HOP-62
HT-29 = test system: HT-29
Hs-578T = test system: Hs-578T
MDA-MB-231 = test system: MDA-MB-231
NCI-H460 = test system: NCI-H460
SF-268 = test system: SF-268
SK-MEL-5 = test system: SK-MEL-5
SK-OV-3 = test system: SK-OV-3
SN12C = test system: SN12C
SNB-75 = test system: SNB-75
T47D = test system: T47D
TK-10 = test system: TK-10
HL-60 = test system: HL-60

Measured: GI50

COC(C/C(=C/CO[Si](C(C)C)(C(C)C)C(C)C)C(=O)N(C(=O)OC(C)(C)C)c1ccccc1I)OC
inactive: 786-0 28.4 µM | A498 > 100 µM | CAKI-1 33.2 µM | COLO 205 67.5 µM | DU-145 > 100 µM | HOP-62 57.7 µM | HT-29 > 100 µM | Hs-578T 83.4 µM | MDA-MB-231 > 10 µM | NCI-H460 31.8 µM | SF-268 > 100 µM | SK-MEL-5 56.2 µM | SK-OV-3 > 100 µM | SN12C 52 µM | SNB-75 > 100 µM | T47D 36.8 µM | TK-10 49 µM

Cc1c(F)c(N)c2c(=O)cc(-c3ccc(NC(=O)CN(C)C)c(F)c3)oc2c1F
inactive: 786-0 39.5 µM | A498 10 µM | CAKI-1 2.45 µM | COLO 205 36.6 µM | DU-145 82.8 µM | HL-60 18.4 µM | HT-29 33.6 µM | Hs-578T > 100 µM | MDA-MB-231 27.8 µM | NCI-H460 24.2 µM | SF-268 28.4 µM | SK-MEL-5 53.5 µM | SK-OV-3 > 100 µM | SN12C > 100 µM | T47D > 100 µM | TK-10 18.5 µM

COc1c(C(C)(C)C)cc(CC2C(=O)C=CC2=O)cc1C(C)(C)C
inactive: 786-0 2.86 µM | A498 18 µM | CAKI-1 15.3 µM | COLO 205 6.75 µM | DU-145 6.53 µM | HL-60 4.34 µM | HOP-62 18.4 µM | HT-29 15.5 µM | Hs-578T 27 µM | MDA-MB-231 18.2 µM | NCI-H460 20.2 µM | SF-268 19.1 µM | SK-MEL-5 17.3 µM | SK-OV-3 25.1 µM | SN12C 26.5 µM | T47D 4.18 µM | TK-10 5.92 µM

CC1(C)OC2COC(c3n[nH]c4c(=O)[nH]c(=O)[nH]c34)C2O1 (stereo not drawn)
inactive: 786-0 > 100 µM | A498 > 100 µM | CAKI-1 > 100 µM | COLO 205 > 100 µM | DU-145 > 100 µM | HL-60 > 100 µM | HOP-62 > 100 µM | HT-29 > 100 µM | Hs-578T > 100 µM | MDA-MB-231 > 100 µM | NCI-H460 > 100 µM | SF-268 > 100 µM | SK-MEL-5 > 100 µM | SK-OV-3 > 100 µM | SN12C > 100 µM | T47D > 100 µM | TK-10 > 100 µM

CC(C)(C)C(=O)CC1=Nc2ccccc2SC1(O)CC(=O)C(C)(C)C (stereo not drawn)
inactive: 786-0 23.4 µM | A498 > 100 µM | CAKI-1 14.7 µM | COLO 205 16.3 µM | DU-145 25.1 µM | HL-60 30.9 µM | HOP-62 26.3 µM | HT-29 17.1 µM | Hs-578T 20.1 µM | MDA-MB-231 17.8 µM | NCI-H460 13.5 µM | SF-268 25.8 µM | SK-MEL-5 18.9 µM | SK-OV-3 13.5 µM | SN12C 21 µM | T47D 19.7 µM | TK-10 64 µM

CCCCCCc1nn2c(-c3ccc(C)cc3)nnc2s1
inactive: 786-0 > 100 µM | A498 > 100 µM | CAKI-1 > 100 µM | COLO 205 > 100 µM | DU-145 > 100 µM | HOP-62 > 100 µM | HT-29 > 100 µM | Hs-578T > 100 µM | MDA-MB-231 > 100 µM | NCI-H460 80 µM | SF-268 > 100 µM | SK-MEL-5 77.1 µM | SK-OV-3 > 100 µM | SN12C > 100 µM | SNB-75 > 100 µM | T47D 58.7 µM | TK-10 > 100 µM

C=C1CC2C[C@H](OS(=O)(=O)c3ccc(C)cc3)C(C1)N2C (stereo partly drawn)
inactive: 786-0 > 100 µM | CAKI-1 > 100 µM | COLO 205 > 100 µM | DU-145 > 100 µM | HL-60 > 100 µM | HOP-62 > 100 µM | HT-29 > 100 µM | Hs-578T > 100 µM | MDA-MB-231 > 100 µM | NCI-H460 > 100 µM | SF-268 > 100 µM | SK-MEL-5 > 100 µM | SK-OV-3 > 100 µM | SN12C > 100 µM | SNB-75 61.9 µM | T47D > 100 µM | TK-10 > 100 µM

N=c1oc2ccccc2cc1-c1nc2ccccc2[nH]1
inactive: 786-0 15.4 µM | CAKI-1 43.9 µM | COLO 205 51.2 µM | DU-145 18.4 µM | HL-60 7.05 µM | HOP-62 53 µM | HT-29 36 µM | Hs-578T 41 µM | MDA-MB-231 22.4 µM | NCI-H460 49.1 µM | SF-268 64.9 µM | SK-MEL-5 20.8 µM | SK-OV-3 13.6 µM | SN12C > 100 µM | SNB-75 41.1 µM | T47D 16.7 µM | TK-10 17.7 µM

CC(C)(C)OC(=O)N1C(c2cccnc2)=CC[C@H]2C3CC=C(c4cccnc4)[C@@]3(C)CC[C@@H]21 (stereo partly drawn)
inactive: 786-0 4.86 µM | A498 5.81 µM | CAKI-1 6.55 µM | COLO 205 1.74 µM | DU-145 4.76 µM | HL-60 1.97 µM | HOP-62 2.79 µM | HT-29 3.53 µM | Hs-578T 5.64 µM | NCI-H460 3.51 µM | SF-268 2.9 µM | SK-MEL-5 2.07 µM | SK-OV-3 4.54 µM | SN12C 3.67 µM | SNB-75 5.6 µM | T47D 4.16 µM | TK-10 4.22 µM

CC(=O)NC(=O)/N=C1\NCCC(=O)N1CCc1c[nH]c2ccccc12
inactive: 786-0 > 100 µM | A498 > 100 µM | CAKI-1 > 100 µM | COLO 205 > 100 µM | DU-145 > 100 µM | HL-60 > 100 µM | HOP-62 > 100 µM | HT-29 > 100 µM | Hs-578T > 100 µM | MDA-MB-231 > 100 µM | NCI-H460 > 100 µM | SF-268 > 100 µM | SK-MEL-5 > 100 µM | SK-OV-3 > 100 µM | SN12C > 100 µM | T47D > 100 µM | TK-10 > 100 µM

CCC1=NC(N/N=C/c2ccco2)=N/C1=C\c1ccco1
inactive: 786-0 > 100 µM | A498 > 100 µM | CAKI-1 > 100 µM | COLO 205 > 100 µM | DU-145 > 100 µM | HL-60 > 100 µM | HOP-62 > 100 µM | HT-29 > 100 µM | Hs-578T > 100 µM | MDA-MB-231 > 100 µM | NCI-H460 52 µM | SF-268 > 100 µM | SK-MEL-5 > 100 µM | SK-OV-3 > 100 µM | SN12C > 100 µM | T47D > 100 µM | TK-10 > 100 µM

CN1CCC2(CC1)/C(=N/C1CCCCC1)NC(=O)N2c1ccccc1
inactive: 786-0 > 100 µM | A498 > 100 µM | COLO 205 > 100 µM | DU-145 > 100 µM | HL-60 > 100 µM | HOP-62 > 100 µM | HT-29 > 100 µM | Hs-578T > 100 µM | MDA-MB-231 > 100 µM | NCI-H460 > 100 µM | SF-268 > 100 µM | SK-MEL-5 > 100 µM | SK-OV-3 > 100 µM | SN12C > 100 µM | SNB-75 > 100 µM | T47D > 100 µM | TK-10 > 100 µM
